Measured values: patent publication US20030119904A1, “Acetyl L-carnitine salt with a dicarboxilic organic acid and process for preparing same” (priority 2001, published 2003)
Structures can show the parent of a compound that is named as a salt.

Key:
[1] = Hygroscopicity: exposure of powder or granules to relative humidity at 25° C. for 24 hours; format: physicochemical
Description: By “hygroscopic” is meant herein the bothersome property shown by most of L-carnitine and alkanoyl L-carnitine salts (particularly by their “inner salts”) to undergo, when they occur as powders or granules, significant alteration of their flowability due to their clotting, agglomeration or even deliquescence, following exposure to an environment of relative humidity […] 50-60%, at 25° C., for 24 hours.

[2] = known from prior art / marketed product; cited from earlier work

Compound | hygroscopicity of the isolated solid ([1]; non-hygroscopic = withstands relative humidity of at least 60%, as powder or granules, without clotting, agglomeration or deliquescence) | relative humidity withstood without loss of flowability ([1]; powder or granules) | hygroscopicity (prior art statement) [2]
CC(=O)O[C@H](CC(=O)O)C[N+](C)(C)C.O=C([O-])/C=C/C(=O)O [ALCFH, acetyl L-carnitine acid fumarate] | non-hygroscopic | ≥ 60% | 
C[N+](C)(C)C[C@H](O)CC(=O)O.O=C([O-])/C=C/C(=O)O [L-carnitine acid fumarate] |  |  | non-hygroscopic
CC(=O)O[C@H](CC(=O)[O-])C[N+](C)(C)C [acetyl L-carnitine inner salt] |  |  | high hygroscopicity
